This is an account of results in ChEMBL document CHEMBL4007467, “Effects of 6-paradol, an unsaturated ketone from gingers, on cytochrome P450-mediated drug metabolism” (Bioorg Med Chem Lett, 2017).

Common to all, as to format: ADME
One data set has as its target T1, CYP2A6 (Homo sapiens, UniProt P11509).
T1 sequence (P11509 whole entry): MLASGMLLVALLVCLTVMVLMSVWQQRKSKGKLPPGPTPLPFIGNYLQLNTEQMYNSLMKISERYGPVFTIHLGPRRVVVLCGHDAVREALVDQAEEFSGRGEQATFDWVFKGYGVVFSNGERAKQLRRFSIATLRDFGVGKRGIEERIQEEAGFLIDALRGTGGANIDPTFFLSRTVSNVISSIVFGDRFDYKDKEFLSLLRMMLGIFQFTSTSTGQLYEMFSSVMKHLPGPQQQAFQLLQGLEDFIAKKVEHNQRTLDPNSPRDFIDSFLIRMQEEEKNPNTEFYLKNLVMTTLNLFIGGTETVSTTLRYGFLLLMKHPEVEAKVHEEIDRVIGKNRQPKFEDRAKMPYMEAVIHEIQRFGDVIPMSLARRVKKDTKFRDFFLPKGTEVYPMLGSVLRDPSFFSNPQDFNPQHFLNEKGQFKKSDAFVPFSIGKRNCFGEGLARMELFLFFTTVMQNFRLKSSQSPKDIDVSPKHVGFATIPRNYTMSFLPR
The data set can be described thus: Inhibition of CYP2A6 in human liver microsomes assessed as enzyme-mediated metabolite formation at 0.3 uM using coumarin as substrate incubated for 5 mins followed by NADPH addition measured after 30 mins by LC-MS/MS analysis relative to control. Conditions: probe coumarin, read-out: Activity. More on the design: scale not given: the % may be the effect or the level left. In general terms: Liver microsomes are a subcellular fraction often used to study metabolism.

In a further data set the target is T2, CYP2B6 (Homo sapiens, UniProt P20813).
T2 sequence (P20813 whole entry): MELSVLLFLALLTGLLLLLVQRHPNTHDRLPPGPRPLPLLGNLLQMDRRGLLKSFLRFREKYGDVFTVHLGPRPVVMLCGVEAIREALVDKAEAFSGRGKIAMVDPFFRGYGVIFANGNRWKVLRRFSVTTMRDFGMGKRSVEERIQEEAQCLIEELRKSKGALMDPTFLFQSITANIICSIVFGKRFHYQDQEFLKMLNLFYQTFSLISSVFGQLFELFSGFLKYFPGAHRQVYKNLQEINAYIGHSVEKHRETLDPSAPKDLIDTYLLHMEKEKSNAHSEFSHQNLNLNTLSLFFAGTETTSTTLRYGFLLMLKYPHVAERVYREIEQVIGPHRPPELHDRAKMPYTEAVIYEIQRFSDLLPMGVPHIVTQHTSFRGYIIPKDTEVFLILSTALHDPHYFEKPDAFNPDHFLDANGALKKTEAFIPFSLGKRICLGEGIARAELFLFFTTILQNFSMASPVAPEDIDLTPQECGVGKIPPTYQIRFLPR
Briefly: Inhibition of CYP2B6 in human liver microsomes assessed as enzyme-mediated metabolite formation at 0.1 uM using bupropion as substrate incubated for 5 mins followed by NADPH addition measured after 30 mins by LC-MS/MS analysis relative to control. More on the design: scale not given: the % may be the effect or the level left. Particulars: probe bupropion, read-out: Activity.

The target of another data set is CYP2C19 (Homo sapiens, UniProt P33261). Briefly: Inhibition of CYP2C19 in human liver microsomes assessed as enzyme-mediated metabolite formation at 0.1 uM using (S)-mephenytoin as substrate incubated for 5 mins followed by NADPH addition measured after 30 mins by LC-MS/MS analysis relative to control. Also on record: scale not given: the % may be the effect or the level left. Conditions: probe (S)-mephenytoin, read-out: Activity.
Sequence of CYP2C19 (P33261 whole entry): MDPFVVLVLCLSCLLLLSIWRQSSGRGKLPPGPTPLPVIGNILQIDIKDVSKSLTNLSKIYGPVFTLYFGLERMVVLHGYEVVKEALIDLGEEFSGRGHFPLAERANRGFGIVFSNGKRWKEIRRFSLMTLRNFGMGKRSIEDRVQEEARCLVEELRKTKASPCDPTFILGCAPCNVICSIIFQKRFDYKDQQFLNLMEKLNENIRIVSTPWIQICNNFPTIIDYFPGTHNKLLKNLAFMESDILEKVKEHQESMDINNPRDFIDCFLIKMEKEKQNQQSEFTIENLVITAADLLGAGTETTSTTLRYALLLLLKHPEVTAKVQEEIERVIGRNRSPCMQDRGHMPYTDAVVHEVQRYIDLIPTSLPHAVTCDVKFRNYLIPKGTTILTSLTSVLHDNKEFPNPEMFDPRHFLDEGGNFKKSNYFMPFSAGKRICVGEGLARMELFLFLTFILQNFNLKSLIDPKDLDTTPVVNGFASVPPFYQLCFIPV

The target in the next data set is CYP3A4 (Homo sapiens, UniProt P08684). Briefly: Inhibition of CYP3A4 in human liver microsomes assessed as enzyme-mediated metabolite formation at 10 uM using midazolam as substrate incubated for 5 mins followed by NADPH addition measured after 30 mins by LC-MS/MS analysis relative to control. More on the design: scale not given: the % may be the effect or the level left. Particulars: probe midazolam, read-out: Activity.
Sequence of CYP3A4 (P08684 whole entry): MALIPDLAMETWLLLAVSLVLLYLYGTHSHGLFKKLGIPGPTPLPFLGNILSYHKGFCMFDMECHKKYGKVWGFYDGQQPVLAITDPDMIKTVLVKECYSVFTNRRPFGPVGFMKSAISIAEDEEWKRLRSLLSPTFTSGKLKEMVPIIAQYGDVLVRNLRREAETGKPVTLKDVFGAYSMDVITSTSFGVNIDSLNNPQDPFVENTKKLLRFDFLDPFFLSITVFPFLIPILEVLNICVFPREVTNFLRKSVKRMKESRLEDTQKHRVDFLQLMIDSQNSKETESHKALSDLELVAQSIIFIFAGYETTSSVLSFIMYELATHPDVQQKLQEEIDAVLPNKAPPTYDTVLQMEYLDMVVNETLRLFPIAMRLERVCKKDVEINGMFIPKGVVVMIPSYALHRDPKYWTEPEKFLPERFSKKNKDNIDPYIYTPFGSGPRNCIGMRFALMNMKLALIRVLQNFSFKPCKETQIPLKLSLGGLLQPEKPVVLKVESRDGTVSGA

The target of data set [1] is T3, CYP1A2 (Homo sapiens, UniProt P05177).
T3 sequence (P05177 whole entry): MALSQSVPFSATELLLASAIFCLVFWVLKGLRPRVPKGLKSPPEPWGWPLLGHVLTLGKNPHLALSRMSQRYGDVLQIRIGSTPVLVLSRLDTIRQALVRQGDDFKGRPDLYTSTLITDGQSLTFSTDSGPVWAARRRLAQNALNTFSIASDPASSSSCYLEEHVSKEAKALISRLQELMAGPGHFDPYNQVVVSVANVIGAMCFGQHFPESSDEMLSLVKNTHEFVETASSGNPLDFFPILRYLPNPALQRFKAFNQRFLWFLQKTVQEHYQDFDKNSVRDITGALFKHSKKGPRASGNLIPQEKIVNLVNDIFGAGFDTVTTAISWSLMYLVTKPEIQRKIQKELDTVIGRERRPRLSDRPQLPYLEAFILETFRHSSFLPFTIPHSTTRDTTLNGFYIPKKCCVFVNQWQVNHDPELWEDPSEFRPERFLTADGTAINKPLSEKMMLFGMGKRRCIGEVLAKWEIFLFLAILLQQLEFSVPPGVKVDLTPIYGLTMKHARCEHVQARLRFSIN
The data set can be described thus: Inhibition of CYP1A2 in human liver microsomes assessed as enzyme-mediated metabolite formation at 10 uM using phenacetin as substrate preincubated for 20 mins followed by substrate addition measured after 30 mins in presence of NADPH by LC-MS/MS analysis relative to control. Conditions: probe phenacetin, read-out: Activity. More on the design: scale not given: the % may be the effect or the level left.

For data set [2], the target named is T3, CYP1A2. The data set can be described thus: Inhibition of CYP1A2 in human liver microsomes assessed as enzyme-mediated metabolite formation at 30 uM using phenacetin as substrate preincubated for 20 mins followed by substrate addition measured after 30 mins in presence of NADPH by LC-MS/MS analysis relative to control. Conditions: probe phenacetin, read-out: Activity. More on the design: scale not given: the % may be the effect or the level left.

Data set [3] concerns the target T4, CYP2C8 (Homo sapiens, UniProt P10632).
T4 sequence (P10632 whole entry): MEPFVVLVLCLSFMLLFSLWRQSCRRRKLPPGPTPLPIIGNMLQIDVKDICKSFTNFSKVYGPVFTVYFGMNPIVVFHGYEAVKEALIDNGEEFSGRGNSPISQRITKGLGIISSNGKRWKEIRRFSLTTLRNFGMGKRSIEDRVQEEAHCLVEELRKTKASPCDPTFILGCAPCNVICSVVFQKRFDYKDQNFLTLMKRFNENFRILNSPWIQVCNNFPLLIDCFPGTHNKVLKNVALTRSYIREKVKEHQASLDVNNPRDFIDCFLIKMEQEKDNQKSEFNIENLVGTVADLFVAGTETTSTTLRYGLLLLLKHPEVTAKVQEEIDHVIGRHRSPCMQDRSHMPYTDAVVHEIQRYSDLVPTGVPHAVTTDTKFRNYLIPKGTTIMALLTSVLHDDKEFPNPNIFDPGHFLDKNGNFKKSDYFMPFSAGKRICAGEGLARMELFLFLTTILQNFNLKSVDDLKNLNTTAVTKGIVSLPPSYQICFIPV
The data set can be described thus: Inhibition of CYP2C8 in human liver microsomes assessed as enzyme-mediated metabolite formation at 1 uM using paclitaxel as substrate preincubated for 20 mins followed by substrate addition measured after 30 mins in presence of NADPH by LC-MS/MS analysis relative to control. Conditions: probe paclitaxel, read-out: Activity. Also on record: scale not given: the % may be the effect or the level left.

Data set [4] deals with T4, CYP2C8. The data set can be described thus: Inhibition of CYP2C8 in human liver microsomes assessed as enzyme-mediated metabolite formation at 30 uM using paclitaxel as substrate preincubated for 20 mins followed by substrate addition measured after 30 mins in presence of NADPH by LC-MS/MS analysis relative to control. More on the design: scale not given: the % may be the effect or the level left. Particulars: probe paclitaxel, read-out: Activity.

The target of a further data set is T5, Cytochrome P450 2C8 (Homo sapiens, UniProt P10632).
T5 sequence (P10632 whole entry): T4 sequence (P10632 whole entry)
The data set can be described thus: Inhibition of human CYP2C8 using paclitaxel as substrate incubated for 5 mins followed by NADPH addition measured after 30 mins by LC-MS/MS analysis.

By IC50 is commonly meant the point on the concentration scale where inhibition reaches its midpoint. Turning to `CCCCCCCC(=O)CCc1ccc(O)c(OC)c1`, the activity at 0.5 h, 0.3 µM on CYP2A6 amounted to 83.8%. The results for the activity at 0.5 h, 0.1 µM on CYP2B6 and at CYP2C19 were 93.6% and 98.4%, respectively. For the same compound, the activity at 0.5 h, 10 µM on CYP3A4 came to 71%; at CYP1A2 [1], 59%. For the same compound, the activity at 0.5 h, 30 µM was 42.8% on CYP1A2 [2] and 40.2% on CYP2C8 [4]. On CYP2C8 [3], the activity at 0.5 h, 1 µM was 61.5%. For the same compound, at Cytochrome P450 2C8, the IC50 turned out to be 3.8 µM. Moreover, the “inhibition (INH)” value at Cytochrome P450 2C8 (human, 0.5 h) is reported as “Dose-dependent effect”.
